Experimental data from article PMC9264404 (Toxicology and applied pharmacology, 2021).
Like-named read-outs stand apart in the source and are kept apart here.

Columns and labels:
[1] = system: hepatic microsomes of humans; conditions: DBC metabolism, human hepatic microsomes, MM model; cited from earlier work
[2] = cited from earlier work
[3] = Pharmacokinetics in human volunteers after oral microdose of 29 ng [14C]-DBC; format: in vivo
[4] = system: mice; conditions: cited from earlier work
[5] = system: hepatic microsomes of mice; conditions: cited from earlier work
[6] = Pharmacokinetics in mice after oral gavage of 15 mg/kg DBC; format: in vivo, female B6129SF1/J mice
[7] = average of human volunteers, 29 ng DBC oral
[8] = DBC metabolism, mouse hepatic microsomes, MM model

In the case of `c1ccc2c(c1)cc1ccc3cccc4c5ccccc5c2c1c34` [DBC, dibenzo[def,p]chrysene], the Km [1] is given as 0.915 µM, the Vmax [1] is given as 0.27 nmol/min/mg and the “Peak concentration in blood” value [2, 7] is given as 74.8 fM. The “time of peak concentration in blood” value [2, 7] was “around 1 hr”, the “Eliminated Total (sum of all DBC metabolites excreted in urine)” value (shortened to “Eliminated Total”) ([2]; volunteer V5, oral dose 25.2 ng) was 0.532 ng 14C-DBCeq and the “Eliminated Total” value ([2]; volunteer V6, oral dose 29.8 ng) was 0.441 ng 14C-DBCeq. For the same compound, the “Eliminated Total” value ([2]; volunteer V8, oral dose 23.9 ng) was 0.285 ng 14C-DBCeq, the “Eliminated Total” value ([2]; volunteer V9, oral dose 28.5 ng) was 0.200 ng 14C-DBCeq and the “Eliminated Total” value ([2]; volunteer V10, oral dose 25.6 ng) was 0.494 ng 14C-DBCeq. The “Eliminated Total” value ([2]; volunteer V13, oral dose 28.5 ng) was 0.263 ng 14C-DBCeq, the “Peak concentration in blood” value ([2]; volunteers 8 and 9 (both), 29 ng DBC oral) was ~ 100 fM and the “time of peak concentration in blood” value ([2]; volunteers 8 and 9, 29 ng DBC oral) was 1 to 2 h. For the same compound, the “% Excreted” value ([3]; Average of volunteers, urine) was 1.39%, the “peak concentration relative to peak DBC-11,12-diol concentration” value [3, 7] was 10 times and the “% Excreted” value ([3]; volunteer V5, urine) was 2.11%. For the same compound, the “% Excreted” value ([3]; volunteer V6, urine) was 1.48%, the “% Excreted” value ([3]; volunteer V8, urine) was 1.20% and the “% Excreted” value ([3]; volunteer V9, urine) was 0.70%. For the same compound, the “% Excreted” value ([3]; volunteer V10, urine) was 1.93%, the “% Excreted” value ([3]; volunteer V13, urine) was 0.92% and the transplacental carcinogenicity ([4]; B6129F1/J mice, offspring of mothers exposed to DBC) was “cause T-cell lymphoma, lung adenoma and liver lesions in offspring”. The “potency in producing lung adenomas relative to benzo[a]pyrene (B[a]P)” value [4] was 100 times, the “tumors after intraperitoneal exposure” value ([4]; mice exposed intraperitoneally) was “lung and liver cancer” and the “tumors after dermal exposure” value ([4]; mice, dermal exposure) was “cause skin tumors”. For the same compound, the “tumors after intramammary exposure” value ([4]; mice, intramammary exposure) was “promote mammary tumors”, the Km [5, 8] was 6.63 µM and the Vmax [5, 8] was 19.38 nmol/min/mg. The “DBC metabolism rate, mice compared to humans” value ([5]; after scaling to body weight to the ¾ power) was 3 fold, the “Peak concentration in blood” value ([6]; 15 mg/kg DBC oral) was “around 3.5 μM” and the “concentration in blood at 48 hr post dosing” value ([6]; 15 mg/kg DBC oral) was “approximately 0.0075 μM”. For the same compound, the “levels detected in urine” value ([6]; 15 mg/kg DBC oral) was “trace levels”, the “time of peak concentration in blood” value ([6]; 15 mg/kg DBC oral) was 3 to 5 h and the “percent of administered dose absorbed (amount of dose recovered in urine)” value ([6]; 15 mg/kg oral, used as model parameter) was 0.311.
With `Oc1c(O)c(O)c2c(cc3ccc4cccc5c6ccccc6c2c3c45)c1O` [DBC-tetrols, dibenzo[def,p]chrysene-11,12,13,14-tetraol] the “mean amount in urine relative to conjugated DBC-11,12-diol” value ([6]; 15 mg/kg DBC oral, 0–16 hr collection interval) was 98.9 times.
